Experimental data as given in ChEMBL document CHEMBL1201862, “PubChem BioAssay data set” (2004).
Each block holds one molecule with its values, some of them ahead of it. Active and inactive are the calls of the source.

Columns and labels:
[1] = target: Tyrosyl-DNA phosphodiesterase 2 (Homo sapiens, UniProt O95551); experiment: human TDP2 enzyme inhibitors, dose response, biochemical, epi absorbance, IC50 (AID 743297)
[2] = target: Tyrosine-protein kinase BTK (Homo sapiens, UniProt Q06187); assay type: functional
[3] = target: Serine/threonine-protein kinase BRSK1 (Homo sapiens, UniProt Q8TDC3); assay type: functional;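 further: measured within a kinome-wide kinase panel, with the target listed as KIAA1811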
[4] = target: Homeodomain-interacting protein kinase 2 (Homo sapiens, UniProt Q9H2X6); assay type: functional;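 further: measured within a kinome-wide kinase profiling panel, HIPK2 being one panel member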
[5] = target: Interleukin-1 receptor-associated kinase 4 (Homo sapiens, UniProt Q9NWZ3); assay type: functional
[6] = target: Cyclin-dependent kinase 8 (Homo sapiens, UniProt P49336); experiment: Navigating the Kinome. Panel member name: CDK8; assay type: functional
[7] = target: Vascular endothelial growth factor receptor 3 (Homo sapiens, UniProt P35916); assay type: functional;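 further: value from a kinome-wide profiling panel, with FLT4 as the panel member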
[8] = target: High affinity nerve growth factor receptor (Homo sapiens, UniProt P04629); assay type: functional;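 further: NTRK1 tested as one member of a kinome-wide profiling panel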
[9] = target: Dual specificity mitogen-activated protein kinase kinase 1 (Homo sapiens, UniProt Q02750); experiment: Navigating the Kinome. Panel member name: MAP2K1; assay type: functional
[10] = target: Dual specificity tyrosine-phosphorylation-regulated kinase 1B (Homo sapiens, UniProt Q9Y463); experiment: Navigating the Kinome. Panel member name: DYRK1B; assay type: functional
[11] = target: Protein kinase C zeta type (Homo sapiens, UniProt Q05513); assay type: functional;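 further: measured as one member of a broad kinase profiling panel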
[12] = target: Serine/threonine-protein kinase Chk1 (Homo sapiens, UniProt O14757); assay type: functional;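 further: measured as one member of a kinome-wide kinase profiling panel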
[13] = target: Macrophage-stimulating protein receptor (Homo sapiens, UniProt Q04912); experiment: Navigating the Kinome. Panel member name: MST1R; assay type: functional
[14] = target: Serine/threonine-protein kinase Chk2 (Homo sapiens, UniProt O96017); assay type: functional;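 further: CHEK2 entry within a kinome-wide screening panel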
[15] = target: Serine/threonine-protein kinase PAK 1 (Homo sapiens, UniProt Q13153); assay type: functional
[16] = target: Mitogen-activated protein kinase kinase kinase kinase 2 (Homo sapiens, UniProt Q12851); assay type: functional;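 further: measured as one member of a kinome-wide kinase panel, with MAP4K2 as the panel entry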
[17] = target: STE20-like serine/threonine-protein kinase (Homo sapiens, UniProt Q9H2G2); assay type: functional
[18] = target: Calcium/calmodulin-dependent protein kinase type II subunit gamma (Homo sapiens, UniProt Q13555); assay type: functional
[19] = target: Insulin-like growth factor 1 receptor (Homo sapiens, UniProt P08069); experiment: Navigating the Kinome. Panel member name: IGF1R; assay type: functional
[20] = target: Testis-specific serine/threonine-protein kinase 2 (Homo sapiens, UniProt Q96PF2); assay type: functional;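 further: part of the Navigating the Kinome panel, target entry STK22B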
[21] = target: Serine/threonine-protein kinase TAO1 (Homo sapiens, UniProt Q7L7X3); assay type: functional
[22] = target: Ribosomal protein S6 kinase alpha-3 (Homo sapiens, UniProt P51812); assay type: functional;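 further: measured within a kinome-wide profiling panel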
[23] = target: Death-associated protein kinase 3 (Homo sapiens, UniProt O43293); assay type: functional;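 further: measured as one member of a kinome-wide profiling panel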
[24] = target: Receptor-type tyrosine-protein kinase FLT3 (Homo sapiens, UniProt P36888); assay type: functional;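 further: FLT3 was tested as one member of a kinome-wide kinase panel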
[25] = target: Serine/threonine-protein kinase PAK 4 (Homo sapiens, UniProt O96013); assay type: functional;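 further: value obtained within a kinome profiling panel in which PAK4 was one of the panel members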
[26] = target: MAP/microtubule affinity-regulating kinase 3 (Homo sapiens, UniProt P27448); assay type: functional;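 further: MARK3 affinity measured as one member of a kinome panel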
[27] = target: Dual specificity tyrosine-phosphorylation-regulated kinase 1A (Homo sapiens, UniProt Q13627); assay type: functional;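 further: measured against DYRK1A as one member of a broad kinome profiling panel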
[28] = target: Vascular endothelial growth factor receptor 2 (Homo sapiens, UniProt P35968); assay type: functional
[29] = target: Megakaryocyte-associated tyrosine-protein kinase (Homo sapiens, UniProt P42679); assay type: functional;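 further: affinity measured as one member of a kinase panel (Navigating the Kinome) against MATK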
[30] = target: Ribosomal protein S6 kinase beta-1 (Homo sapiens, UniProt P23443); assay type: functional;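 further: measured as one member of a kinome-wide profiling panel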
[31] = target: Mitogen-activated protein kinase kinase kinase kinase 5 (Homo sapiens, UniProt Q9Y4K4); assay type: functional;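 further: measured as one member of a kinome-spanning kinase panel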
[32] = target: T1, Caspase-7 (Homo sapiens, UniProt P55210); experiment: procaspase-7 activators, dose response, counter-screen for procaspase-3 activator project, biochemical, absorbance (AID 489013)
T1 sequence (P55210 whole entry): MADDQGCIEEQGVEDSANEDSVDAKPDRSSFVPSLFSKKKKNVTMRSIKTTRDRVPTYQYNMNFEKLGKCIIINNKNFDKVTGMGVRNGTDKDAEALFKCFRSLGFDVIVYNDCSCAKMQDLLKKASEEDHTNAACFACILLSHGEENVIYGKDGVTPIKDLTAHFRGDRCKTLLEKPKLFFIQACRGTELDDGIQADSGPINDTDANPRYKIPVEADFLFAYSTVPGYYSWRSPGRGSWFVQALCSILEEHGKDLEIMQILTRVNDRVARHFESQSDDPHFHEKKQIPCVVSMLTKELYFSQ

[33] = target: T2, Microphthalmia-associated transcription factor (Homo sapiens, UniProt O75030); experiment: TRPM1 promoter luciferase signal decrease, dose response, MITF inhibitor project, cell-based, SK-MEL-5, cherry-picked, set 3 (AID 493073); assay type: functional
T2 sequence (O75030 whole entry): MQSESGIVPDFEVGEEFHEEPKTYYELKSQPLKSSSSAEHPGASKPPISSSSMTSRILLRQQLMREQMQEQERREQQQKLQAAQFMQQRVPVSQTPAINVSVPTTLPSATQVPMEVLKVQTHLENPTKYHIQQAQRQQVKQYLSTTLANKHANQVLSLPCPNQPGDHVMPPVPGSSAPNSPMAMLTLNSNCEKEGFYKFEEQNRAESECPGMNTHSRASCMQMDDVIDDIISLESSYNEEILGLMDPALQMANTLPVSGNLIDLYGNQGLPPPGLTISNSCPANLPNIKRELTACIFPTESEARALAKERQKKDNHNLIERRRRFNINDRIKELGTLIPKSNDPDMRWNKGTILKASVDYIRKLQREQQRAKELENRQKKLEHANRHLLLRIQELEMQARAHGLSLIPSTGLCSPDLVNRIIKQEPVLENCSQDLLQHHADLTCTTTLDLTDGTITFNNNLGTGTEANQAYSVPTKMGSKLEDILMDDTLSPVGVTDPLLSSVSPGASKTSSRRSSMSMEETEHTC

[34] = cytotoxicity toward NIH3T3 fibroblasts, dose response, counter-screen, cell-based, ATP luminescence, mouse fibroblasts (AID 2010); assay type: functional;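 further: cells exposed to compound for about 90 hours before reading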

Chain of Tyrosyl-DNA phosphodiesterase 2 (O95551 whole entry): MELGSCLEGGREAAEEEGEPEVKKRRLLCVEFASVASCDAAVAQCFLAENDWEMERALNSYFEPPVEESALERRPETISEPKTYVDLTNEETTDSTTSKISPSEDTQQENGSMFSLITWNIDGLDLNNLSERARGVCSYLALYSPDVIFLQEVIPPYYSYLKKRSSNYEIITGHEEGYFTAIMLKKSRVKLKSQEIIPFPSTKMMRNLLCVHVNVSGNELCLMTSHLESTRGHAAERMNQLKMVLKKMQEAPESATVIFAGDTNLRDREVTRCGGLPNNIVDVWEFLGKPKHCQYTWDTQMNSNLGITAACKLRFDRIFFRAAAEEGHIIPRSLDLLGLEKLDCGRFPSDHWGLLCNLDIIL
Chain of Serine/threonine-protein kinase TAO1 (Q7L7X3 whole entry): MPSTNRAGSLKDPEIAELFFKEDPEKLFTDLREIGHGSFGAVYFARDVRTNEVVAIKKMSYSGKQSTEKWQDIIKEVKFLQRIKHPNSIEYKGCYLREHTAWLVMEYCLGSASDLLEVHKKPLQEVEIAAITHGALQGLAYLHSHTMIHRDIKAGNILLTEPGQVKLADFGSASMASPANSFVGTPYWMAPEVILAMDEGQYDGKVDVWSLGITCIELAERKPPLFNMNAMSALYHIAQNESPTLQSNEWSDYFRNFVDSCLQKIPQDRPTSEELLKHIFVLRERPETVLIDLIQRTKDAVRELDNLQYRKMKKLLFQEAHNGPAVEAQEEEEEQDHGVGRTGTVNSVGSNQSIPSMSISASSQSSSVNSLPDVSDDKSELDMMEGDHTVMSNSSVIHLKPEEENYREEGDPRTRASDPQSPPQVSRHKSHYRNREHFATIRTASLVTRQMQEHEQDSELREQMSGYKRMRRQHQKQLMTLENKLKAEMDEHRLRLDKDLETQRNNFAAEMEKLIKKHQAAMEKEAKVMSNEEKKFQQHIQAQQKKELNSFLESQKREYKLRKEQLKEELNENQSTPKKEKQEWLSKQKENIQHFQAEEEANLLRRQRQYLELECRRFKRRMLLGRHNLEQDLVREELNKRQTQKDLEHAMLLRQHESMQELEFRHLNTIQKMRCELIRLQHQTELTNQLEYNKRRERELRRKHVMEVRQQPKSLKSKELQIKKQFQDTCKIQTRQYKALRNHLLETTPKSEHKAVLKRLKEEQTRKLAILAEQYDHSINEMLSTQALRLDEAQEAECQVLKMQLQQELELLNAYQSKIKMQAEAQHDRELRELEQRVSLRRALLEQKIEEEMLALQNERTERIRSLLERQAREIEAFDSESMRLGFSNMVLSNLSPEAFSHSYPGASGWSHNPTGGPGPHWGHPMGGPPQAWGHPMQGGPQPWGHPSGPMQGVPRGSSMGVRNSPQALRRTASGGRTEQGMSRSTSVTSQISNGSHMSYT
Chain of High affinity nerve growth factor receptor (P04629 whole entry): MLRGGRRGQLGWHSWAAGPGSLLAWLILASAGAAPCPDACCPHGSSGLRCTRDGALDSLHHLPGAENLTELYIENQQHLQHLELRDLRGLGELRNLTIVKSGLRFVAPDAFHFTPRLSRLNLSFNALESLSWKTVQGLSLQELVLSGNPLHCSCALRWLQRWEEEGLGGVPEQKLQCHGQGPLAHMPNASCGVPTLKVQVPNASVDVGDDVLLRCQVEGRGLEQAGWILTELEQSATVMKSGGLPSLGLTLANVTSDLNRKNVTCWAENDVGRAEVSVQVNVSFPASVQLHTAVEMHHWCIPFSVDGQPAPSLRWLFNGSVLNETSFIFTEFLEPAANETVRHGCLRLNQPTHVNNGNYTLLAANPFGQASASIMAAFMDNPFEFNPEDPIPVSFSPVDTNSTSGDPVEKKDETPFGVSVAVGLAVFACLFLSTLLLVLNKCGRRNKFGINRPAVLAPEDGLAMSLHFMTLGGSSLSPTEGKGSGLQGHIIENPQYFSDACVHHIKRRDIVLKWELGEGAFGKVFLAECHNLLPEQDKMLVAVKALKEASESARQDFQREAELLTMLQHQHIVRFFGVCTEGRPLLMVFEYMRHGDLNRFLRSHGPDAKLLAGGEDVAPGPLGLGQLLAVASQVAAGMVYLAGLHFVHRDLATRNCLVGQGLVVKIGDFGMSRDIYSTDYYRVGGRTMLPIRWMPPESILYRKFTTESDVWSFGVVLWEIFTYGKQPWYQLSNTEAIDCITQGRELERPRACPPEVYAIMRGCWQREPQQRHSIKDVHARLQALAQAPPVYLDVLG
Chain of MAP/microtubule affinity-regulating kinase 3 (P27448 whole entry): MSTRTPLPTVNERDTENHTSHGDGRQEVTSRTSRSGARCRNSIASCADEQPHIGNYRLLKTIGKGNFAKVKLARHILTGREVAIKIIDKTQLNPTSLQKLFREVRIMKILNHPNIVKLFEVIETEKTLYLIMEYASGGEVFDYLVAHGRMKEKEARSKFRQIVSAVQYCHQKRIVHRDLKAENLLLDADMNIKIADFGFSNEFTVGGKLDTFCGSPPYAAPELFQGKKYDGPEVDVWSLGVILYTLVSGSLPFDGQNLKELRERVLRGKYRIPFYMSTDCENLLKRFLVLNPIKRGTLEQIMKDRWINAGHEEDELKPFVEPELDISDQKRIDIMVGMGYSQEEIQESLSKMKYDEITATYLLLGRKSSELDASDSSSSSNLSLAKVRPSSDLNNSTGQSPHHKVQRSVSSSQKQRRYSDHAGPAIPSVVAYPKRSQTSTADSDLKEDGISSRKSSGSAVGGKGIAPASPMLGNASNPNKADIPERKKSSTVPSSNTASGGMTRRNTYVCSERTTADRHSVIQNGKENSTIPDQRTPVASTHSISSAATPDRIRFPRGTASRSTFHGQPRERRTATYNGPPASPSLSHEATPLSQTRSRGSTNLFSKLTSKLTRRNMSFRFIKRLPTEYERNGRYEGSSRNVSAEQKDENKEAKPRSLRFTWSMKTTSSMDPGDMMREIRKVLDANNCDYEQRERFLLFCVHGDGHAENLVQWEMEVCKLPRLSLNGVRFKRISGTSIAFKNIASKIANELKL
Chain of Macrophage-stimulating protein receptor (Q04912 25-304 limits assumed): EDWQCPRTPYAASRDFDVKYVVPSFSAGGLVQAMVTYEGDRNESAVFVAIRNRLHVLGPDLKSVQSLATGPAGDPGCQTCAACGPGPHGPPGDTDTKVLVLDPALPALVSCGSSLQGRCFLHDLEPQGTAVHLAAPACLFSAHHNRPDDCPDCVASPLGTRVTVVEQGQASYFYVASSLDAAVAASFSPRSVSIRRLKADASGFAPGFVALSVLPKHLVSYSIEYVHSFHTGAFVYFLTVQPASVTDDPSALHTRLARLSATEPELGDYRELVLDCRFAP
Chain of Macrophage-stimulating protein receptor (Q04912 310-1400 limits assumed): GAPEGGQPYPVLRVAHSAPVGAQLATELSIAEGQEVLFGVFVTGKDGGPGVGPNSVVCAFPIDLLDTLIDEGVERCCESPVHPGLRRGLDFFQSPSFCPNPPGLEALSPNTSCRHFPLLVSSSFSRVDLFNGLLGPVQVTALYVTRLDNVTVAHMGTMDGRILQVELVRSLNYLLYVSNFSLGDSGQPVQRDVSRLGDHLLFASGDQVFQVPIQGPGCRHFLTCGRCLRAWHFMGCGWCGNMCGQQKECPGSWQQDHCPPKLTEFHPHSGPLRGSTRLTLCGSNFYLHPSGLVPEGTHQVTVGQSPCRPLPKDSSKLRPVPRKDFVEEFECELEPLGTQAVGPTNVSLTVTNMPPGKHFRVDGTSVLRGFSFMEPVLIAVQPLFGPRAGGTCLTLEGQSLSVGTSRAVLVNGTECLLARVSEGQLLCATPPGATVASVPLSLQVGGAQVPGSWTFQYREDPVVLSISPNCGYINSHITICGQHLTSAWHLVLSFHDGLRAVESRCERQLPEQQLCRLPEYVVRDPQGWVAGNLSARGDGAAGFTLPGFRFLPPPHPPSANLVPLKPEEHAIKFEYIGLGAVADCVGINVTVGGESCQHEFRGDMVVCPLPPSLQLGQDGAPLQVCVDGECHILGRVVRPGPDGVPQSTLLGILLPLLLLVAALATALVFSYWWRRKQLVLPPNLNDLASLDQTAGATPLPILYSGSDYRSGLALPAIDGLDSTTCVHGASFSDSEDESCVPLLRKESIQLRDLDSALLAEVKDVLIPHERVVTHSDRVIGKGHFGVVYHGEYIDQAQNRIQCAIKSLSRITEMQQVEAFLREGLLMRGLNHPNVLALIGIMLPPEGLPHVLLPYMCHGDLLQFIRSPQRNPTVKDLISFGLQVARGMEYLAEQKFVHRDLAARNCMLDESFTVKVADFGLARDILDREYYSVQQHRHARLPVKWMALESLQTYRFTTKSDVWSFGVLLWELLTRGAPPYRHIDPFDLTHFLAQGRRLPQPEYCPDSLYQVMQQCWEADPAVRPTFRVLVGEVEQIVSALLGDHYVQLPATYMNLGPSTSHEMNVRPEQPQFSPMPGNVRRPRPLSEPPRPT
Chain of Testis-specific serine/threonine-protein kinase 2 (Q96PF2 whole entry): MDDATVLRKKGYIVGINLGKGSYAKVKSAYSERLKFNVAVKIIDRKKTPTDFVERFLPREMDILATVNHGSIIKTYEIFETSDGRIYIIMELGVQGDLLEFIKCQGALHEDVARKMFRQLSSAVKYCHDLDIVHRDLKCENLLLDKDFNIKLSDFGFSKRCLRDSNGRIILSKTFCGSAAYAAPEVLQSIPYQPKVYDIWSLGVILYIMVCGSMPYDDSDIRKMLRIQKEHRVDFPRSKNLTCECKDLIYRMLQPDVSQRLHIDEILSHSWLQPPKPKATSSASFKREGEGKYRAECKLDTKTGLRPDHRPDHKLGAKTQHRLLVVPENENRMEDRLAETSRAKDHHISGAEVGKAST
Chain of Dual specificity mitogen-activated protein kinase kinase 1 (Q02750 whole entry): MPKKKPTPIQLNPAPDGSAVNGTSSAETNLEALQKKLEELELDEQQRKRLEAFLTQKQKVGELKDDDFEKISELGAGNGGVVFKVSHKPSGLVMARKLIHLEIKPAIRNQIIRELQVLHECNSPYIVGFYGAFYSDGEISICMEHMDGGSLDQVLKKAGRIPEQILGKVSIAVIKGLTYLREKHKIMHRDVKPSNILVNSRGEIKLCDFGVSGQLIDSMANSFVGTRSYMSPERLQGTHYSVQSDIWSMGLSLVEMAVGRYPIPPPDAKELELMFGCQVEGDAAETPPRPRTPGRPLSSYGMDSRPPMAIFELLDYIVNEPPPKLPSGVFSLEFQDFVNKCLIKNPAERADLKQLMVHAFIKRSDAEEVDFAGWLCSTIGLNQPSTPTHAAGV

Compound: CC(C)N(C(=O)Nc1ccc2nsnc2c1)C(C)C
IC50 [1]: 8.96 µM (active)

Compound: NS(=O)(=O)c1ccc(NC2=CC(=O)C(=O)c3ccccc32)cc1
IC50 [1]: 5.59 µM (active)

Ki [2]: > 3.98 µM (inactive)
Ki [3]: > 10 µM (inactive)
Ki [4]: 0.1 µM (active)
Ki [5]: 0.158 µM (active)
Ki [6]: 0.00398 µM (active)
Ki [7]: 0.251 µM (active)
Ki [8]: 2 µM (active)
Ki [9]: 0.2 µM (active)
Ki [10]: 0.00794 µM (active)
Ki [11]: > 7.94 µM (inactive)
Ki [12]: 3.98 µM (active)
Ki [13]: > 3.98 µM (inactive)
Ki [14]: > 1.58 µM (inactive)
Ki [15]: > 10 µM (inactive)
Ki [16]: > 1.26 µM (inactive)
Ki [17]: 6.31 µM (active)
Ki [18]: 0.501 µM (active)
Ki [19]: > 2 µM (inactive)
Ki [20]: > 1.58 µM (inactive)
Ki [21]: > 7.94 µM (inactive)
Ki [22]: > 2 µM (inactive)
Ki [24]: > 1 µM (inactive)
Ki [25]: > 2 µM (inactive)
Ki [26]: 0.158 µM (active)
Ki [27]: 0.02 µM (active)
Ki [28]: 2.51 µM (active)
Ki [29]: > 2 µM (inactive)
Ki [30]: 2.51 µM (active)
Ki [31]: > 2 µM (inactive)
Compound: Clc1cc(-c2c[nH]c3ncccc23)nc(NC2CCCCC2)n1
Ki [23]: 0.501 µM (active)

Compound: O=C(N/N=C/c1ccc(O)cc1O)c1ccc(CN2C(=O)c3cccc4cccc2c34)cc1
EC50 [32]: > 85.3 µM (inactive)

Compound: CCC(=O)NC(c1ccccc1OC)c1ccc2cccnc2c1O (stereo not given)
AC50 [33]: 6.7 µM (active)
EC50 [34]: 1.67 µM (active)
